ChEMBL document CHEMBL5038640, “Natural Berberine-derived Azolyl Ethanols as New Structural Antibacterial Agents against Drug-Resistant Escherichia coli” (J Med Chem, 2022)

Columns and labels:
Pseudomonas aeruginosa [1] = test: Antibacterial activity against Pseudomonas aeruginosa assessed as decrease in bacterial growth incubated for 18 hrs by broth microdilution method; assay type: functional
Klebsiella pneumoniae = test: Antibacterial activity against Klebsiella pneumoniae assessed as decrease in bacterial growth incubated for 18 hrs by broth microdilution method; assay type: functional
Staphylococcus aureus [2] = test: Antibacterial activity against methicillin-resistant Staphylococcus aureus N315 assessed as decrease in bacterial growth incubated for 18 hrs by broth microdilution method; assay type: functional
[3] = Aqueous solubility of the compound in saline; assay type: physicochemical
Pseudomonas aeruginosa [4] = test: Antibacterial activity against Pseudomonas aeruginosa ATCC 27853 assessed as decrease in bacterial growth incubated for 18 hrs by broth microdilution method; assay type: functional
Enterococcus faecalis = test: Antibacterial activity against Enterococcus faecalis assessed as decrease in bacterial growth incubated for 18 hrs by broth microdilution method; assay type: functional
Acinetobacter baumannii = test: Antibacterial activity against Acinetobacter baumannii assessed as decrease in bacterial growth incubated for 18 hrs by broth microdilution method; assay type: functional
Escherichia coli [5] = test: Antibacterial activity against Escherichia coli ATCC 25922 assessed as decrease in bacterial growth incubated for 18 hrs by broth microdilution method; assay type: functional
Staphylococcus aureus [6] = test: Antibacterial activity against Staphylococcus aureus ATCC 25923 assessed as decrease in bacterial growth incubated for 18 hrs by broth microdilution method; assay type: functional
Staphylococcus aureus [7] = test: Antibacterial activity against Staphylococcus aureus ATCC 29213 assessed as decrease in bacterial growth incubated for 18 hrs by broth microdilution method; assay type: functional
Escherichia coli [8] = test: Antibacterial activity against Escherichia coli assessed as decrease in bacterial growth incubated for 18 hrs by broth microdilution method; assay type: functional
Staphylococcus aureus [9] = test: Antibacterial activity against Staphylococcus aureus assessed as decrease in bacterial growth incubated for 18 hrs by broth microdilution method; assay type: functional

| Structure (SMILES) | MIC (Pseudomonas aeruginosa [1]) | MIC (Klebsiella pneumoniae) | MIC (Staphylococcus aureus [2]) | solubility [3] | MIC (Pseudomonas aeruginosa [4]) | MIC (Enterococcus faecalis) | MIC (Acinetobacter baumannii) | MIC (Escherichia coli [5]) | MIC (Staphylococcus aureus [6]) | MIC (Staphylococcus aureus [7]) | MIC (Escherichia coli [8]) | MIC (Staphylococcus aureus [9]) |
| --- | --- | --- | --- | --- | --- | --- | --- | --- | --- | --- | --- | --- |
| COc1ccc2cc3[n+](cc2c1OCC(O)CN1CCCC1)CCc1cc2c(cc1-3)OCO2.[Br-] (stereo unspecified) | 121 µM | 242 µM | 121 µM | 2340 µM | 121 µM | 121 µM | 121 µM | 121 µM | 121 µM | 121 µM | 242 µM | 60 µM |
| COc1ccc2cc3[n+](cc2c1OCC(O)Cn1cnnc1)CCc1cc2c(cc1-3)OCO2.[Br-] (stereo unspecified) | 243 µM | 121 µM | 243 µM | 1100 µM | 121 µM | 243 µM | 243 µM | 243 µM | 243 µM | 243 µM | 121 µM | 243 µM |
| COc1ccc2cc3[n+](cc2c1OCC(O)Cn1cnc2cc(Br)ccc21)CCc1cc2c(cc1-3)OCO2.[Br-] (stereo unspecified) | 98 µM | 24 µM | 24 µM | 774 µM | 98 µM | 98 µM | 98 µM | 98 µM | 98 µM | 98 µM | 49 µM | 98 µM |
| COc1ccc2cc3[n+](cc2c1OCC(O)CSc1nnc(C)s1)CCc1cc2c(cc1-3)OCO2.[Br-] (stereo unspecified) | 108 µM | 108 µM | 108 µM | 1180 µM | 108 µM | 108 µM | 108 µM | 108 µM | 108 µM | 108 µM | 108 µM | 108 µM |
| COc1ccc2cc3[n+](cc2c1OCC(O)Cn1nnc2ccccc21)CCc1cc2c(cc1-3)OCO2.[Br-] (stereo unspecified) | 111 µM | 111 µM | 111 µM | 1720 µM | 111 µM | 111 µM | 111 µM | 111 µM | 55 µM | 55 µM | 111 µM | 111 µM |
| COc1ccc2cc3[n+](cc2c1OCC(O)Cn1nnnc1C)CCc1cc2c(cc1-3)OCO2.[Br-] (stereo unspecified) | 121 µM | 121 µM | 121 µM | 2150 µM | 121 µM | 121 µM | 121 µM | 121 µM | 61 µM | 61 µM | 121 µM | 121 µM |
| COc1ccc2cc3[n+](cc2c1OCC(O)CN1CCOCC1)CCc1cc2c(cc1-3)OCO2.[Br-] (stereo unspecified) | 469 µM | 469 µM | 469 µM | 2190 µM | 469 µM | 469 µM | 469 µM | 235 µM | 469 µM | 235 µM | 235 µM | 469 µM |
| COc1ccc2cc3[n+](cc2c1OCC(O)CN1CCCCC1)CCc1cc2c(cc1-3)OCO2.[Br-] (stereo unspecified) | 118 µM | 236 µM | 59 µM | 2000 µM | 236 µM | 118 µM | 118 µM | 236 µM | 236 µM | 236 µM | 118 µM | 118 µM |
| COc1ccc2cc3[n+](cc2c1OCC(O)Cn1cnc2ccccc21)CCc1cc2c(cc1-3)OCO2.[Br-] (stereo unspecified) | 111 µM | 56 µM | 56 µM | 1720 µM | 56 µM | 56 µM | 56 µM | 56 µM | 56 µM | 56 µM | 28 µM | 111 µM |
| COc1ccc2cc3[n+](cc2c1OCC(O)Cn1cnc([N+](=O)[O-])c1)CCc1cc2c(cc1-3)OCO2.[Br-] (stereo unspecified) | 112 µM | 56 µM | 56 µM | 936 µM | 56 µM | 112 µM | 112 µM | 112 µM | 112 µM | 56 µM | 28 µM | 112 µM |
| COc1ccc2cc3[n+](cc2c1OCC(O)Cn1ccnc1)CCc1cc2c(cc1-3)OCO2.[Br-] (stereo unspecified) | 124 µM | 61 µM | 61 µM | 1800 µM | 124 µM | 124 µM | 61 µM | 124 µM | 124 µM | 124 µM | 61 µM | 124 µM |
| COc1ccc2cc3[n+](cc2c1OCC(O)CN(CCO)CCO)CCc1cc2c(cc1-3)OCO2.[Br-] (stereo unspecified) | 114 µM | 227 µM | 57 µM | 4240 µM | 114 µM | 114 µM | 114 µM | 114 µM | 227 µM | 28 µM | 114 µM | 14 µM |
| COc1ccc2cc3[n+](cc2c1OC)CCc1cc2c(cc1-3)OCO2 [BERBERINE] | 344 µM | 172 µM | 689 µM | 751 µM | 344 µM | 344 µM | 1380 µM | 172 µM | 344 µM | 172 µM | 344 µM | 344 µM |
| COc1ccc2cc3[n+](cc2c1OCC(O)CSc1nc2ccccc2[nH]1)CCc1cc2c(cc1-3)OCO2.[Br-] (stereo unspecified) | 105 µM | 53 µM | 53 µM | 783 µM | 53 µM | 53 µM | 26 µM | 105 µM | 53 µM | 53 µM | 53 µM | 105 µM |
| COc1ccc2cc3[n+](cc2c1OCC(O)CSc1nccn1C)CCc1cc2c(cc1-3)OCO2.[Br-] (stereo unspecified) | 112 µM | 112 µM | 56 µM | 791 µM | 112 µM | 56 µM | 56 µM | 112 µM | 56 µM | 112 µM | 28 µM | 112 µM |
| COc1ccc2cc3[n+](cc2c1OCC(O)CSc1nc[nH]n1)CCc1cc2c(cc1-3)OCO2.[Br-] (stereo unspecified) | 114 µM | 57 µM | 57 µM | 801 µM | 114 µM | 114 µM | 114 µM | 114 µM | 114 µM | 114 µM | 57 µM | 114 µM |
| CCN(CC)CC(O)COc1c(OC)ccc2cc3[n+](cc12)CCc1cc2c(cc1-3)OCO2.[Br-] (stereo unspecified) | 60 µM | 241 µM | 60 µM | 3320 µM | 60 µM | 120 µM | 60 µM | 120 µM | 120 µM | 60 µM | 241 µM | 60 µM |
| COc1ccc2cc3[n+](cc2c1OCC(O)Cn1cc(C=O)c2ccccc21)CCc1cc2c(cc1-3)OCO2.[Br-] (stereo unspecified) | 106 µM | 106 µM | 106 µM | 790 µM | 27 µM | 53 µM | 106 µM | 53 µM | 53 µM | 53 µM | 53 µM | 53 µM |
